Data: patent US20130143915A1, “TRIAZOLOPYRIDINES AS TYK2 INHIBITORS” (CELLZOME LIMITED, priority 2010, published 2013)

Legend:
[1] = target: T1, JAK2 (Homo sapiens, UniProt O60674); assay: Kinobeads assay, JAK2 (competition binding in mixed Molt4/Ramos cell lysate, dot blot detection)
T1 construct: endogenous in cells; host or cells: mixed Molt4/Ramos cell lysate (1:2)
Protocol: (§1) The compounds of the present invention as described in the previous examples were tested in a Kinobeads™ assay as described for ZAP-70 (WO-A 2007/137867). Briefly, test compounds (at various concentrations) and the affinity matrix with the immobilized aminopyrido-pyrimidine ligand 24 were added to cell lysate aliquots and allowed to bind to the proteins in the lysate sample. After the incubation time the beads with captured proteins were separated from the lysate. Bound proteins were then eluted and the presence of TYK2 and JAK2 was detected and quantified using specific antibodies in a dot blot procedure and the Odyssey infrared detection system. Dose response curves for individual kinases were generated and IC50 values calculated. Kinobeads™ assays have been previously described (WO-A 2007/137867; WO-A 2006/134056).
(§2) The affinity matrix was washed two times with 15 mL of 1×DP buffer containing 0.2% NP40 (IGEPAL® CA-630, Sigma, #13021) and then resuspended in 1×DP buffer containing 0.2% NP40 (3% beads slurry).
(§3) 5×DP buffer: 250 mM Tris-HCl pH 7.4, 25% Glycerol, 7.5 mM MgCl2, 750 mM NaCl, 5 mM Na3VO4; filter the 5×DP buffer through a 0.22 μm filter and store in aliquots at −80° C. The 5×DP buffer is diluted with H2O to 1×DP buffer containing 1 mM DTT and 25 mM NaF.
(§4) Stock solutions of test compounds were prepared in DMSO. In a 96 well plate 30 μL solution of diluted test compounds at 5 mM in DMSO were prepared. Starting with this solution a 1:3 dilution series (9 steps) was prepared. For control experiments (no test compound) a buffer containing 2% DMSO was used.
(§5) Molt4 cells (ATCC catalogue number CRL-1582) and Ramos cells (ATCC catalogue number CRL-1596) were grown in 1 L Spinner flasks (Integra Biosciences, #182101) in suspension in RPMI 1640 medium (Invitrogen, #21875-034) supplemented with 10% Fetal Bovine Serum (Invitrogen) at a density between 0.15×10^6 and 1.2×10^6 cells/mL. Cells were harvested by centrifugation, washed once with 1×PBS buffer (Invitrogen, #14190-094) and cell pellets were frozen in liquid nitrogen and subsequently stored at −80° C. Cells were homogenized in a Potter S homogenizer in lysis buffer: 50 mM Tris-HCl, 0.8% NP40, 5% glycerol, 150 mM NaCl, 1.5 mM MgCl2, 25 mM NaF, 1 mM sodium vanadate, 1 mM DTT, pH 7.5. One complete EDTA-free tablet (protease inhibitor cocktail, Roche Diagnostics, 1873580) per 25 mL buffer was added. The material was dounced 10 times using a mechanized POTTER S, transferred to 50 mL falcon tubes, incubated for 30 minutes on ice and spun down for 10 minutes at 20,000 g at 4° C. (10,000 rpm in Sorvall SLA600, precooled). The supernatant was transferred to an ultracentrifuge (UZ)-polycarbonate tube (Beckmann, 355654) and spun for 1 hour at 100.000 g at 4° C. (33.500 rpm in Ti50.2, precooled). The supernatant was transferred again to a fresh 50 mL falcon tube, the protein concentration was determined by a Bradford assay (BioRad) and samples containing 50 mg of protein per aliquot were prepared. The samples were immediately used for experiments or frozen in liquid nitrogen and stored frozen at −80° C.
(§6) Cell lysate (approximately 50 mg protein per plate) was thawed in a water bath at room temperature and then stored on ice. To the thawed cell lysate 1×DP 0.8% NP40 buffer containing protease inhibitors (1 tablet for 25 mL buffer; EDTA-free protease inhibitor cocktail; Roche Diagnostics 1873580) was added in order to reach a final protein concentration of 10 mg/mL total protein. The diluted cell lysate was stored on ice. Mixed Molt4/Ramos lysate was prepared by combining one volume of Molt4 lysate and two volumes of Ramos lysate (ratio 1:2).
(§7) To a 96 well filter plate (Multiscreen HTS, BV Filter Plates, Millipore #MSBVN1250) were
(§8) added per well: 100 μL affinity matrix (3% beads slurry), 3 μL of compound solution, and 50 μL of diluted lysate. Plates were sealed and incubated for 3 hours in a cold room on a plate shaker (Heidolph tiramax 1000) at 750 rpm. […]

[2] = target: T2, TYK2 (Homo sapiens, UniProt P29597); assay: Kinobeads assay, TYK2 (competition binding in mixed Molt4/Ramos cell lysate, dot blot detection)
T2 construct: endogenous in cells; host or cells: mixed Molt4/Ramos cell lysate (1:2)
T2 sequence (P29597 whole entry): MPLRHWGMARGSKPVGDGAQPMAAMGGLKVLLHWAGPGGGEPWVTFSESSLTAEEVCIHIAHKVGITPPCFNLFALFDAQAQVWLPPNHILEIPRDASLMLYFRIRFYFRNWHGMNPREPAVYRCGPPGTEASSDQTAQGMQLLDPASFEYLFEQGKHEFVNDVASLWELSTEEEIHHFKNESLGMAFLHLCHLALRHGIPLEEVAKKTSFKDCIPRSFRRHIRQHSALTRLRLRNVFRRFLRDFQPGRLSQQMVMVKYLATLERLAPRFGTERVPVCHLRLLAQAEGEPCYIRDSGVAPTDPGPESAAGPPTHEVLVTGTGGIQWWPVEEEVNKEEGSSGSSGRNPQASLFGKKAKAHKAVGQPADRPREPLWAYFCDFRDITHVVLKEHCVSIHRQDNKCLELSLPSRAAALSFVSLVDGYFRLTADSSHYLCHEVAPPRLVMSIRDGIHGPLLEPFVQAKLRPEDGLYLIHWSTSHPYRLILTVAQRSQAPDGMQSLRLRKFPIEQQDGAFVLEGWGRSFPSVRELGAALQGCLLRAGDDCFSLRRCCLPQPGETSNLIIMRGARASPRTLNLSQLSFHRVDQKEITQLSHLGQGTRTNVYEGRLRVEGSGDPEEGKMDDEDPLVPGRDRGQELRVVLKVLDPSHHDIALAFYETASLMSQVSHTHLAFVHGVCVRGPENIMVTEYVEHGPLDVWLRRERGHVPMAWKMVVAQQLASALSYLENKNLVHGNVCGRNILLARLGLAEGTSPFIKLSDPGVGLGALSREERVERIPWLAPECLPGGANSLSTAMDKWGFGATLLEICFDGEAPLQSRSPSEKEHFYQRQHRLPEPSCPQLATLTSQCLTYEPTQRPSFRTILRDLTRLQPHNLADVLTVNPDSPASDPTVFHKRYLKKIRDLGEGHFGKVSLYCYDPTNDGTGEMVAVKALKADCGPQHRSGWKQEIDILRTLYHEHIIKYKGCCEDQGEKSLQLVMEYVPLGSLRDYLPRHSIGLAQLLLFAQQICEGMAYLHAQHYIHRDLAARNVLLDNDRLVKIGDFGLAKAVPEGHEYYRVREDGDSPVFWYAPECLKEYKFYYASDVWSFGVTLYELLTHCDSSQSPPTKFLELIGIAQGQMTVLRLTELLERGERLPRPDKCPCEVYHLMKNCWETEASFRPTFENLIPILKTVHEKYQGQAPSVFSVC
Protocol: as §1, §2, §3, §4, §5, §6, §7, §8

T1 sequence (O60674 whole entry): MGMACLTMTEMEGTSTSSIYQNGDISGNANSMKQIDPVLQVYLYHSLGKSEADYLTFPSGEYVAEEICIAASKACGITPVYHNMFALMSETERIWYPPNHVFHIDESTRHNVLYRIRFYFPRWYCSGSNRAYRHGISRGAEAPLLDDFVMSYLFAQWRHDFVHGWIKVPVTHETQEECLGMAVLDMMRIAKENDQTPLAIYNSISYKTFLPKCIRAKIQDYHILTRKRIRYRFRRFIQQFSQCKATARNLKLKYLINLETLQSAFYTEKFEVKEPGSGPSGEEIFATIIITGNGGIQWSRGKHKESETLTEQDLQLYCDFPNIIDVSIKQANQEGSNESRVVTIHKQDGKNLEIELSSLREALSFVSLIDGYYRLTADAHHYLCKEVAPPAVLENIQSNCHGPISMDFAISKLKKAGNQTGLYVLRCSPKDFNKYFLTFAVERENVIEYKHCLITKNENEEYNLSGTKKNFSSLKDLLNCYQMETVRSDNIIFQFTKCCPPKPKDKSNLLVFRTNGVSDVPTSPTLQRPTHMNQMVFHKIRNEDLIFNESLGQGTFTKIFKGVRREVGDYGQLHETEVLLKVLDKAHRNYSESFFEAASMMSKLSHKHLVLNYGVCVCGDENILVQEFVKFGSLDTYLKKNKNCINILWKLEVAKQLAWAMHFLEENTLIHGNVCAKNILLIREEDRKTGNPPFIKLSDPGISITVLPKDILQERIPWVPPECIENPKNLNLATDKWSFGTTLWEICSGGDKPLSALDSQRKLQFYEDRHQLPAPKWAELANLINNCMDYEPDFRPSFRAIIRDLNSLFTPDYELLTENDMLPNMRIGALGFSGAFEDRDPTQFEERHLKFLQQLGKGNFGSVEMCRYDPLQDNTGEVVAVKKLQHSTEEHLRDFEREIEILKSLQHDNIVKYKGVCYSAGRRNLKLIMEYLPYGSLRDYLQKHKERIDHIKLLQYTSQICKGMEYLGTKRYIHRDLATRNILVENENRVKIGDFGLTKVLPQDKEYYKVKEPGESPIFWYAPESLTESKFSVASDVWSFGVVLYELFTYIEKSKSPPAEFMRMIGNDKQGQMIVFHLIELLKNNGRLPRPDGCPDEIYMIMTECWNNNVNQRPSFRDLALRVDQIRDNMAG

| Compound | IC50 [1] | IC50 [2] |
| --- | --- | --- |
| Nc1ccc(-c2cccc3nc(NC(=O)C4CC4)nn23)c(Cl)c1 [Example 6, N-(5-(4-amino-2-chlorophenyl)-[1,2,4]triazolo[1,5-a]pyridin-2-yl)cyclopropanecarboxamide] | > 10000 nM | 100 to 1000 nM |
| COc1ccc(-c2cccc3nc(NC(=O)C4CC4)nn23)c(F)c1 [Example 1, N-(5-(2-fluoro-4-methoxyphenyl)-[1,2,4]triazolo[1,5-a]pyridin-2-yl)cyclopropane carboxamide] | > 10000 nM | 100 to 1000 nM |
| Cc1ccc(-c2cccc3nc(NC(=O)C4CC4)nn23)c(C)c1 [Example 12, N-(5-(2,4-dimethylphenyl)-[1,2,4]triazolo[1,5-a]pyridin-2-yl)cyclopropanecarboxamide] | > 10000 nM | 100 to 1000 nM |
| CS(=O)(=O)Nc1ccc(-c2cccc3nc(NC(=O)C4CC4)nn23)c(Cl)c1 [Example 8, N-(5-(2-chloro-4-(methylsulfonamido)phenyl)-[1,2,4]triazolo[1,5-a]pyridin-2-yl)cyclopropanecarboxamide] | > 10000 nM | 100 to 1000 nM |
| COc1ccc(-c2cccc3nc(NC(=O)C4CC4)nn23)c(C(F)(F)F)c1 [Example 3, N-(5-(4-methoxy-2-(trifluoromethyl)phenyl)-[1,2,4]triazolo[1,5-a]pyridin-2-yl)cyclopropanecarboxamide] | > 10000 nM | 1000 to 10000 nM |
| Nc1ccc(-c2cccc3nc(NC(=O)C4CC4)nn23)c(F)c1 [Example 7, N-(5-(4-amino-2-fluorophenyl)-[1,2,4]triazolo[1,5-a]pyridin-2-yl)cyclopropanecarboxamide] | > 10000 nM | 100 to 1000 nM |
| COc1ccc(-c2cccc3nc(NC(=O)C4CC4)nn23)c(Cl)c1 [Example 4, N-(5-(2-chloro-4-methoxyphenyl)-[1,2,4]triazolo[1,5-a]pyridin-2-yl)cyclopropanecarboxamide] | > 10000 nM | 100 to 1000 nM |
| O=C(Nc1nc2cccc(-c3ccc(NS(=O)(=O)C4CC4)cc3Cl)n2n1)C1CC1 [Example 11] | > 10000 nM | < 100 nM |
| CS(=O)(=O)c1ccc(-c2cccc3nc(NC(=O)C4CC4)nn23)c(F)c1 [Example 5, N-(5-(2-fluoro-4-(methylsulfonyl)phenyl)-[1,2,4]triazolo[1,5-a]pyridin-2-yl)cyclopropanecarboxamide] | > 10000 nM | 100 to 1000 nM |
| O=C(Nc1nc2cccc(-c3ccc(Cl)cc3Cl)n2n1)C1CC1 [Example 2, N-(5-(2,4-dichlorophenyl)-[1,2,4]triazolo[1,5-a]pyridin-2-yl)cyclopropanecarboxamide] | > 10000 nM | 100 to 1000 nM |
| COc1ccc(-c2cccc3nc(NC(=O)C4CC4)nn23)c(C)c1 [Example 10, N-(5-(4-methoxy-2-methylphenyl)-[1,2,4]triazolo[1,5-a]pyridin-2-yl)cyclopropanecarboxamide] | > 10000 nM | 100 to 1000 nM |
| CS(=O)(=O)Nc1ccc(-c2cccc3nc(NC(=O)C4CC4)nn23)c(F)c1 [Example 9, N-(5-(2-fluoro-4-(methylsulfonamido)phenyl)-[1,2,4]triazolo[1,5-a]pyridin-2-yl)cyclopropanecarboxamide] | > 10000 nM | 100 to 1000 nM |
